Where “and” joins values, the source holds several entries; their conditions need not be identical. Identical values can stand only once.
How the values were obtained:
Format in all cases: cell-based
[1] = test system: mouse IL-2 mRNA in primary LN cells; assay: Mouse IL-2 mRNA in LN cells of Copaxone P53974-immunized CSJLF1/JRj mice stimulated with twelve GA lots (Example VIII)
Procedure: (§1) A real-time polymerase chain reaction method was used to measure the expression of IL-2, IL-4, IL-5, and IL-13 mRNA in LN cells, from GA-immunized mice, following stimulation with one of twelve GA lots. One lot of GA (Copaxone P53974) was used for immunization. […] Twenty female CSJLF1/JRj mice (Janvier Labs), approximately 8-12 weeks of age, were immunized by injection of 0.1 mL injection volume into four footpads (about 10 μL into each of the front footpad, 40 μL into each of the hind footpad) on Day 0. […] Samples were prepared using TaqMan Universal PCR Master Mix II (Life Technologies) and run in 96-well plates using a Real-Time PCR system (7500, Life Technologies) using the following RT-PCR program: The levels of cytokine mRNA were calculated using a standard ΔΔCT method as described previously.

[2] = test system: mouse IL-17 mRNA in primary LN cells; assay: Mouse IL-17 mRNA in LN cells of Copaxone P53974-immunized CSJLF1/JRj mice stimulated with GA lots (Example VIII); conditions: stimulation conc. 2.5 μg/mL; for IL-17 mRNA/B-Actin Fold Change: normalized to B-Actin; for IL-17 mRNA/GAPDH Fold Change: normalized to GAPDH
Procedure: [The procedure below names another target; the source lists this target under the same test.] as §1

[3] = test system: mouse IL-5 mRNA in primary LN cells; assay: Mouse IL-5 mRNA in LN cells of Copaxone P53974-immunized CSJLF1/JRj mice stimulated with twelve GA lots (Example VIII); conditions: stimulation conc. 2.5 μg/mL; for IL-5 mRNA/GAPDH Fold Change: normalized to GAPDH
Procedure: as §1

[4] = test system: mouse TNF-α mRNA in primary LN cells; assay: Validation: mouse TNF-α mRNA by real-time PCR in LN cells of GA-immunized SJL/J mice (Example IV); conditions: for TNF-α mRNA Fold Change: normalized to GAPDH
Procedure: Three experiments were conducted using one batch of GA (Mylan GMA). The primary LN cells were stimulated by incubation with 6 concentrations (0.3 to 20 μg/mL) of the GA for 6 hours at 37° C. Total RNA was isolated from LN cells stimulated with GA or controls. cDNA was synthesized from the RNA and the mRNA levels of seven mouse cytokines, IL-2, IL-4, IL-5, IL-10, IL-13, interferon (IFN)-γ and tumor necrosis factor (TNF)-α, were quantitatively measured by a real-time PCR method.
Female SJL/J mice at 8-9 weeks of age were immunized by injection into four footpads using a 1 mL syringe with a 27-G, ½-inch needle. Each mouse received a total injection volume of 0.1 mL of GMA emulsified in CFA (about 10 μL into each of the front footpads and 40 μL into each of the hind footpads). Animals were immunized on Day 0. After injection, animals were placed back in their cages and housed ≤6 animals per cage.
Immunized animals were sacrificed by cervical dislocation on Day 10 following immunization. […] After centrifugation at about 200×g for 10 minutes at 4° C., the cell pellet was re-suspended in 40 mL of DCCM-1 medium for cell counting. A Trypan blue exclusion method was used to determine the cell density of viable cells in the suspension. After cell counting, the LN cells were suspended in enriched DCCM-1 medium at density of 7.5×10^6 cells/mL. LN cells (0.12 mL) were plated into each well of 96-well tissue culture plates.
Dilutions of GA (Mylan GMA) were prepared using enriched DCCM-1 medium as the diluent. GA dilutions (0.12 mL) were added in the assigned wells of 96-well tissue culture plates. The same volume of LN cells (0.12 mL) isolated from immunized animals was added to the assigned wells. A positive control and a negative control were always performed in the same assay by treating LN cells with 2.5 μg/mL ConA and 10 μg/mL MBP, respectively. The LN cells with mock stimulation protocols (enriched DCCM-1 medium) were used to monitor the background mRNA level of a cytokine. The plates were incubated at 37° C. in a humidified 5% CO2 incubator for 6 hr.
At the end of incubation time, culture medium from stimulated cells was removed by aspiration and the cells were lysed using Qiagen or Promega lysis buffer. The lysate was transferred to an RNeasy Mini column (Qiagen) or wells of the SV 96 Binding Plate (Promega) for RNA isolation and cDNA synthesis. All tested samples were run in triplicate.
The SV 96 Total RNA Isolation System (Promega; Cat. No. Z3505) was used for total RNA isolation. Assay procedures were carried out according to each manufacturer's protocol. RNA samples were stored at −70° C. until use. […] The assay procedure was carried out according to the manufacturer's protocol.
The plate was centrifuged at 2000 rpm for 2 minutes at 4° C. to spin down the contents and eliminate air bubbles. Samples were prepared and run in a 96-well plate using a Life Technologies Real-Time PCR system (previously Applied Biosystems; Model No. 7500) according to the manufacturer's recommendation. The mix for the reference gene was prepared in the same way using the reference gene primer.
A relative quantitation method was used to analyze changes in mIL-2, mIL-4, mIL-5, mIL-10, mIL-13, mIFN-γ and TNF-α expression in GA treated samples relative to the untreated control (Enriched DCCM-1 treated) samples using the following program:
Levels of mouse cytokine amplicons were normalized to an internal probe level (GAPDH) from the same samples. The following equations were used to calculate the relative increase in response to GA stimulation compared to the control sample (Enriched DCCM1 sample): […]

[5] = Plate 1, positive control 2.5 μg/mL listed in the C1 section
[6] = Plate 1, positive control 2.5 μg/mL listed in the C2 section
[7] = Plate 1, positive control 2.5 μg/mL listed in the C3 section
[8] = relative to DCCM1 medium control

Molecule: Concanavalin A [ConA, reference compound]
- IL-2 mRNA/B-Actin Fold Change [1, 5]: 118.1 fold
- IL-2 mRNA/GAPDH Fold Change [1, 5]: 116.9 fold
- IL-2 mRNA/B-Actin Fold Change [1, 6]: 111.2 fold
- IL-2 mRNA/GAPDH Fold Change [1, 6]: 103.7 fold
- IL-2 mRNA/B-Actin Fold Change [1, 7]: 105.2 fold
- IL-2 mRNA/GAPDH Fold Change [1, 7]: 87.6 fold
- IL-2 mRNA/B-Actin Fold Change ([1]; stimulation conc. 2.5 μg/mL, normalized to B-Actin): 109.3 fold and 120.1 fold and 75.2 fold and 81.3 fold and 103.6 fold and 101.9 fold and 92.2 fold and 98.9 fold
- IL-2 mRNA/B-Actin Fold Change ([1]; stimulation conc. 2.5 μg/mL, normalized to B-Actin, ΔΔCT): 106.7 fold and 96.2 fold and 103.1 fold and 120.5 fold and 121.8 fold
- IL-2 mRNA/GAPDH Fold Change ([1]; stimulation conc. 2.5 μg/mL, normalized to GAPDH): 103.2 fold and 111.7 fold and 82.0 fold and 84.8 fold and 158.0 fold and 127.7 fold and 102.6 fold and 127.5 fold
- IL-2 mRNA/GAPDH Fold Change ([1]; stimulation conc. 2.5 μg/mL, normalized to GAPDH, ΔΔCT): 100.3 fold and 92.7 fold and 99.8 fold and 147.4 fold and 131.3 fold
- IL-17 mRNA/B-Actin Fold Change [2]: 133.2 fold and 224.2 fold and 128.3 fold and 204.1 fold
- IL-17 mRNA/B-Actin Fold Change [2, 8]: 67.2 and 83.0 and 70.9 and 64.8
- IL-17 mRNA/GAPDH Fold Change [2]: 125.8 fold and 208.6 fold and 139.9 fold and 213.0 fold
- IL-17 mRNA/GAPDH Fold Change [2, 8]: 102.6 and 104.0 and 78.8 and 83.6
- IL-5 mRNA/B-Actin Fold Change ([3]; normalized to B-Actin): 23.6 fold and 20.9 fold and 21.3 fold and 21.4 fold
- IL-5 mRNA/GAPDH Fold Change [3]: 23.6 fold and 20.0 fold and 20.6 fold and 22.3 fold
- IL-5 mRNA/GAPDH Fold Change ([3]; ΔΔCT): 25.7 fold and 32.7 fold and 22.2 fold and 20.8 fold and 26.0 fold and 25.2 fold and 30.3 fold and 29.3 fold
- TNF-α mRNA Fold Change ([4]; Experiment 1, 2.5 μg/mL): 1.9 fold
- TNF-α mRNA Fold Change ([4]; Experiment 2, 2.5 μg/mL): 0.8 fold
- TNF-α mRNA Fold Change ([4]; Experiment 3, 2.5 μg/mL): 1.6 fold

B1: MBP: myelin basic protein, a negative control (protein, UniProt P02686 1-304, looked up)
Myelin basic protein: MGNHAGKRELNAEKASTNSETNRGESEKKRNLGELSRTTSEDNEVFGEADANQNNGTSSQDTAVTDSKRTADPKNAWQDAHPADPGSRPHLIRLFSRDAPGREDNTFKDRPSESDELQTIQEDSAATSESLDVMASQKRPSQRHGSKYLATASTMDHARHGFLPRHRDTGILDSIGRFFGGDRGAPKRGSGKDSHHPARTAHYGSLPQKSHGRTQDENPVVHFFKNIVTPRTPPPSQGKGRGLSLSRFSWGAEGQRPGFGYGGRASDYKSAHKGFKGVDAQGTLSKIFKLGGRDSRSGSPMARR
- TNF-α mRNA Fold Change ([4]; Experiment 1, 10 μg/mL): 1.0 fold
- TNF-α mRNA Fold Change ([4]; Experiment 2, 10 μg/mL): 1.1 fold
- TNF-α mRNA Fold Change ([4]; Experiment 3, 10 μg/mL): 1.1 fold
- TNF-α mRNA expression level in response to MBP treatment ([4]; SJL/J, MBP 10 μg/mL, all PCR runs): ≤ 2 fold
